Laboratory results from US9585388B2, “Synergistically acting ternary antimicrobial mixtures” (SYMRISE AG, priority 2011, dated 2017).

Test system: Aspergillus niger ATCC 16404
Test: Test for adequate preservation (European Pharmacopoeia) in O/W emulsion, CFU reduction
Assay type: cell-based
Conditions: total concentration used 1 wt % in O/W emulsion, pH 5.5, initial CFU 1200000
Description: In case of doubt, antimicrobial efficacy in the sense of this text is present when adequate preservation is established according to the European Pharmacopoeia (ISBN 3-7692-2768-9; Supplement 2001 to the 3rd Edition, page 421-422, chapter 5.1.3). The microbe preferably to be used is preferably Aspergillus niger ATCC16404. For further information on the procedure for testing for antimicrobial efficacy, reference is made in particular to example 1 given below.
Synergistic intensification (of antimicrobial action) is present when the synergy index (SI value) of the test mixture according to Kull (literature: F. C. Kull et al., Applied Microbiology Vol. 9, p. 538-541 (1961); D. C. Steinberg, Cosmetics & Toiletries Vol. 115(11), 59-62 (2000)) gives a value <1. For further information on calculation of the synergy index, reference is again made to example 1 given below. Once again, the microbe preferably to be used for determining the synergy index is the strain of Aspergillus niger stated above.
The test for adequate preservation was carried out according to the European Pharmacopoeia. […]
To determine the potentially synergistically intensified efficacy of ternary mixtures containing 2-phenoxyethanol, 1,2-decanediol and 1,2-hexanediol, the CFU-reducing properties were determined according to the test procedure described in example 1 for the individual substances, for various binary mixtures and for ternary mixtures according to the invention.
The synergy index (SI values) of the ternary mixtures according to the invention and binary mixtures not according to the invention according to Kull (literature: F. C. Kull et al., Applied Microbiology Vol. 9, p. 538-541 (1961); D. C. Steinberg, Cosmetics & Toiletries Vol. 115(11), 59-62 (2000) was calculated using the following equations. SI=Z*D/A+Z*E/B Binary mixtures: SI=Z*D/A+Z*E/B+Z*F/C Ternary mixture: wherein: D, E, F: factor of proportion of the individual constituents (e.g. 70 wt %=factor 0.70) A, B, C: CFU of the individual substances at time point 48 h Z: CFU of the binary/ternary mixture at time point 48 h […]

SMILES	Aspergillus niger CFU after 48 h [CFU]
OCCOc1ccccc1 [product A, 2-phenoxyethanol]	1100000
CCCCCCCCC(O)CO (stereo not drawn) [product B, 1,2-decanediol]	1200000
CCCCC(O)CO (stereo not drawn) [product C, 1,2-hexanediol]	1000000
